Here are results for one compound from patent US20120263762A1, “STABILISED PARTICLES COMPRISING 5-METHYL-(6S)-TETRAHYDROFOLATE” (BAYER PHARMA AKTIENGESELLSCHAFT, priority 2009, published 2012).

A short description of this data set: Particle size distribution of particles (laser diffraction, volume distribution). It is filed as physicochemical. The settings on record: micronized active ingredient before coating. An excerpt: When used herein, the term “d90 particle size” is intended to mean that the particle size distribution is so that at least 90% of the particles have a particle diameter of less than the specified value, calculated from the volume distribution curve under the presumption of spherical particles. In a similar way, the term “d50 particle size” is intended to mean that the particle size distribution is so that at least 50% of the particles have a particle diameter of less than the specified value, calculated from the volume distribution curve under the presumption of spherical particles.
Therefore, it is important to note that whenever the terms “particle size”, “particle size distribution”, “particle diameter”, “d90”, “d50”, etc., are used herein it should be understood that the specific values or ranges used in connection therewith are always meant to be determined from the volume distribution curve under the presumption of spherical particles. The particle size distribution may be determined by various techniques, e.g. laser diffraction, and will be known to the person skilled in the art. […] The particle size distribution of the particles, when incorporated in a wafer, may be determined by dissolving the film forming matrix, separation of the protected particles, and drying the protected particles. […]

`C[C@]12CCC(=O)C=C1[C@@H]1C[C@@H]1[C@H]1[C@@H]3[C@@H]4C[C@@H]4[C@@]4(CCC(=O)O4)[C@@]3(C)CC[C@@H]12` [drospirenone]: the d50 is given as 2.2 μm and the d90 came out at 4.8 μm.
